Assay results published in US20120010159A1, “COMBINATION THERAPIES WITH COX-2 INHIBITORS AND TREPROSTINIL” (United Therapeutics Corporation, priority 2010, published 2012).

Key:
[1] = administered by subcutaneous infusion; cited from earlier work
[2] = bioavailability when delivered to the duodenum; format: in vivo; conditions: duodenal delivery
Excerpt: Accordingly, one embodiment of the present invention involves preferential delivery of the desired compound to the duodenum as well as pharmaceutical formulations that achieve duodenal delivery. Duodenal administration can be achieved by any means known in the art. In one of these embodiments, the present compounds can be formulated in an enteric-coated dosage form. Generally, enteric-coated dosage forms are usually coated with a polymer that is not soluble at low pH, but dissolves quickly when exposed to pH conditions of 3 or above. This delivery form takes advantage of the difference in pH between the stomach, which is about 1 to 2, and the duodenum, where the pH tends to be greater than 4.

[3] = oral administration; cited from earlier work

Structure (SMILES) | absolute bioavailability [1] [%] | bioavailability when delivered to the duodenum [2] | absolute oral bioavailability [3] [%]
CCCCC[C@H](O)CC[C@@H]1[C@H]2Cc3cccc(OCC(=O)O)c3C[C@H]2C[C@H]1O [treprostinil sodium] | ~100 |  | 
CCCCC[C@H](O)CC[C@@H]1[C@H]2Cc3cccc(OCC(=O)O)c3C[C@H]2C[C@H]1O [treprostinil] |  | increased bioavailability | ~10
